Assay results from patent US9199946B2, “Pyrimidinone carboxamide inhibitors of endothelial lipase” (BRISTOL-MYERS SQUIBB COMPANY, priority 2012, dated 2015).
Where two headings read alike, the source gives them in different places.

Target: T1, Endothelial lipase (EL) (Homo sapiens, UniProt Q9Y5X9)
T1 construct: HT-1080 cells, which were transformed by RAGE technology (Athersys) to overexpress endogenous EL; endogenous in cells; conditioned medium used as the enzyme source
T1 sequence (Q9Y5X9 21-500): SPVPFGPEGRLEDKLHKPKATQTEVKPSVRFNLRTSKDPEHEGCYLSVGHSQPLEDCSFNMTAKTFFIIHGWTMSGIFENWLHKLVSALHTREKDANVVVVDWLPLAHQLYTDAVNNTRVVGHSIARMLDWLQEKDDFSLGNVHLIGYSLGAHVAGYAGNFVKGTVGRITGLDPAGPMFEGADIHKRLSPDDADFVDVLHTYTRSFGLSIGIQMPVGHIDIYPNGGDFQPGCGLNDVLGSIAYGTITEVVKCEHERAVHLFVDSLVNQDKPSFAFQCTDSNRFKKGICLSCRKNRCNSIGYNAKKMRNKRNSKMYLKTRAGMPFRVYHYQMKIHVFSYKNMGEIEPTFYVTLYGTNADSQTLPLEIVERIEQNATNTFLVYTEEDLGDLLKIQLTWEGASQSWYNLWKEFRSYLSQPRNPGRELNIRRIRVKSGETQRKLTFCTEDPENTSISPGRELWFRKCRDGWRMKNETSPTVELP
Assay: Endothelial lipase (EL) enzymatic assay with fluorescent substrate A10070 in DMPG vesicles
Type: biochemical
Summary of the method: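 EL activity was followed as a fluorescence rate (488/530 nm, reads every 20 s for 10 min, linear slope) on A10070 doped at 0.05 mole fraction into sonicated DMPG vesicles. Compound was first incubated 20 min at 37 °C, pH 8.0 HEPES/CaCl2 buffer, with conditioned media from EL-overexpressing HT-1080 cells.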

[1] = range observed in the EL assay, read-out: EL IC50 values
[2] = conditioned media from HT-1080 cells overexpressing endogenous EL, 20 min preincubation at 37° C., read-out: EL IC50

## COc1ccc2c(c1)C(NC(=O)c1[nH]c(=O)[nH]c(=O)c1N)CCC2 (single isomer, unassigned; enantiomer b) [Example 200, 5-amino-N-(7-methoxy-1,2,3,4-tetrahydronaphthalen-1-yl)-2,6-dioxo 1,2,3,6-tetrahydropyrimidine-4-carboxamide (Enantiomer B)]
[1]
  IC50: ≤ 10 µM

## Nc1c(C(=O)N[C@@H]2CC[C@H](C(=O)Nc3ccccc3)C2)[nH]c(=O)[nH]c1=O [Example 130, 5-amino-2,6-dioxo-N-((1R,3S)-3-(phenylcarbamoyl)cyclopentyl)-1,2,3,6-tetrahydropyrimidine-4-carboxamide]
[1]
  IC50: ≤ 10 µM

## O=C(N[C@H]1CC[C@@H](c2ccccc2)CC1)c1[nH]c(=O)[nH]c(=O)c1NCc1ccccc1CO [Example 212, 5-(2-(hydroxymethyl)benzylamino)-2,6-dioxo-N-(cis-4-phenylcyclohexyl)-1,2,3,6-tetrahydropyrimidine-4-carboxamide]
[1]
  IC50: ≤ 10 µM

## Nc1c(C(=O)NC2CCCc3ccsc32)[nH]c(=O)[nH]c1=O (centres unmarked) [Example 46, 5-amino-2,6-dioxo-N-(4,5,6,7-tetrahydrobenzo[b]thiophen-7-yl)-1,2,3,6-tetrahydropyrimidine-4-carboxamide]
[2]
  IC50: 3.32 µM
[1]
  IC50: ≤ 10 µM

## Nc1c(C(=O)NC2CCC(c3cnn(Cc4ccccc4)c3)C2)[nH]c(=O)[nH]c1=O (single isomer, unassigned) [Example 131, 5-amino-N-(3-(1-benzyl-1H-pyrazol-4-yl)cyclopentyl)-2,6-dioxo-1,2,3,6-tetrahydropyrimidine-4-carboxamide]
[1]
  IC50: ≤ 10 µM

## CC(C)Oc1ccc(C2CCC(NC(=O)c3[nH]c(=O)[nH]c(=O)c3N)C2)cc1 (centres unmarked) [Example 142, 5-amino-N-(3-(4-isopropoxyphenyl)cyclopentyl)-2,6-dioxo-1,2,3,6-tetrahydropyrimidine-4 carboxamide]
[2]
  IC50: 0.039 µM
[1]
  IC50: ≤ 10 µM

## Cc1ccc(-c2ccc([C@@H]3CC[C@H](NC(=O)c4[nH]c(=O)[nH]c(=O)c4N)C3)cc2)cc1 [Example 169, 5-amino-N-((1S,3R)-3-(4′-methylbiphenyl-4-yl)cyclopentyl)-2,6-dioxo-1,2,3,6-tetrahydropyrimidine-4-carboxamide]
[1]
  IC50: ≤ 10 µM

## CC(C)Cn1cc(-c2ccc([C@@H]3CC[C@H](NC(=O)c4[nH]c(=O)[nH]c(=O)c4N)C3)cc2)cn1 [Example 172, 5-amino-N-((1S,3R)-3-(4-(1-isobutyl-1H-pyrazol-4-yl)phenyl)cyclopentyl)-2,6-dioxo-1,2,3,6-tetrahydropyrimidine-4-carboxamide]
[1]
  IC50: ≤ 10 µM

## O=C(N[C@H]1CC[C@@H](c2ccccc2)CC1)c1[nH]c(=O)[nH]c(=O)c1NC1CCC1 [Example 233, 5-(cyclobutylamino)-2,6-dioxo-N-(cis-4-phenylcyclohexyl)-1,2,3,6-tetrahydropyrimidine-4-carboxamide]
[1]
  IC50: ≤ 10 µM

## Nc1c(C(=O)N[C@@H]2CC[C@H](c3ccccc3)c3ccccc32)[nH]c(=O)[nH]c1=O [Example 19, 5-amino-2,6-dioxo-N-((1R,4R)-4-phenyl-1,2,3,4-tetrahydronaphthalen-1-yl)-1,2,3,6-tetrahydropyrimidine-4-carboxamide]
[1]
  IC50: ≤ 10 µM

## O=C(N[C@H]1CCN(c2ccccc2)C1)c1[nH]c(=O)[nH]c(=O)c1O [Example 274, (S)-5-hydroxy-2,6-dioxo-N-(1-phenylpyrrolidin-3-yl)-1,2,3,6-tetrahydropyrimidine-4-carboxamide]
[1]
  IC50: ≤ 10 µM

## Nc1c(C(=O)N[C@@H]2CCc3cc(OCc4ccccc4)ccc32)[nH]c(=O)[nH]c1=O [Example 87, (R)-5-amino-N-(5-(benzyloxy)-2,3-dihydro-1H-inden-1-yl)-2,6-dioxo-1,2,3,6-tetrahydropyrimidine-4-carboxamide]
[1]
  IC50: ≤ 10 µM

## O=C(N[C@H]1CC[C@@H](c2ccccc2)CC1)c1[nH]c(=O)[nH]c(=O)c1NCCN1CCOCC1 [Example 211, 5-(2-morpholinoethylamino)-2,6-dioxo-N-(cis-4-phenylcyclohexyl)-1,2,3,6-tetrahydropyrimidine-4-carboxamide]
[2]
  IC50: 0.291 µM
[1]
  IC50: ≤ 10 µM

## Nc1c(C(=O)N[C@@H]2CC[C@@H](C(=O)NCc3nc4ccccc4s3)C2)[nH]c(=O)[nH]c1=O [Example 148, 5-amino-N-((1R,3R)-3-(benzo[d]thiazol-2-ylmethylcarbamoyl)cyclopentyl)-2,6-dioxo-1,2,3,6-tetrahydropyrimidine-4-carboxamide]
[1]
  IC50: ≤ 10 µM

## CC1C(NC(=O)c2[nH]c(=O)[nH]c(=O)c2N)CC2(C(C)C)CC12 (centres unmarked) [Example 57, 5-amino-N-(1-isopropyl-4-methylbicyclo[3.1.0]hexan-3-yl)2,6-dioxo-1,2,3,6-tetrahydropyrimidine-4-carboxamide]
[2]
  IC50: 4.89 µM
[1]
  IC50: ≤ 10 µM

## O=C(N[C@@H]1CCc2cc(C(F)(F)F)ccc21)c1[nH]c(=O)[nH]c(=O)c1O [Example 249, (R)-5-hydroxy-2,6-dioxo-N-(5-(trifluoromethyl)-2,3-dihydro-1H-inden-1-yl)-1,2,3,6-tetrahydropyrimidine-4-carboxamide]
[1]
  IC50: ≤ 10 µM

## Nc1c(C(=O)N[C@@H]2CC[C@@H](C(=O)N[C@H]3CC[C@@H](c4ccccc4)CC3)C2)[nH]c(=O)[nH]c1=O [Example 147, 5-amino-2,6-dioxo-N-((1R,3R)-3-(cis-4-phenylcyclohexylcarbamoyl)cyclopentyl)-1,2,3,6-tetrahydropyrimidine-4-carboxamide]
[1]
  IC50: ≤ 10 µM

## Nc1c(C(=O)N[C@H]2CCc3ccc(Br)cc32)[nH]c(=O)[nH]c1=O [Example 55, (S)-5-amino-N-(6-bromo-2,3-dihydro-1H-inden-1-yl)-2,6-dioxo-1,2,3,6-tetrahydropyrimidine-4-carboxamide]
[1]
  IC50: ≤ 10 µM

## O=C(N[C@@H]1CCCc2c(OCC3CCCC3)cccc21)c1[nH]c(=O)[nH]c(=O)c1O [Example 291, (R)-N-(5-(cyclopentylmethoxy)-1,2,3,4-tetrahydronaphthalen-1-yl)-5-hydroxy-2,6-dioxo-1,2,3,6-tetrahydropyrimidine-4-carboxamide]
[1]
  IC50: ≤ 10 µM

## Nc1c(C(=O)N[C@@H]2CCc3ccc(-c4ccccc4)cc32)[nH]c(=O)[nH]c1=O [Example 138, (R)-5-amino-2,6-dioxo-N-(6-phenyl-2,3-dihydro-1H-inden-1-yl)-1,2,3,6-tetrahydropyrimidine-4-carboxamide]
[2]
  IC50: 1.72 µM
[1]
  IC50: ≤ 10 µM

## COc1cccc(N2CC(NC(=O)c3[nH]c(=O)[nH]c(=O)c3N)CC2=O)c1 (centres unmarked) [Example 81, 5-amino-N-(1-(3-methoxyphenyl)-5-oxopyrrolidin-3-yl)-2,6-dioxo-1,2,3,6-tetrahydropyrimidine-4-carboxamide]
[1]
  IC50: ≤ 10 µM

## COc1cccc2c1CCCC2NC(=O)c1[nH]c(=O)[nH]c(=O)c1N (centres unmarked) [Example 47, 5-amino-N-(5-methoxy-1,2,3,4-tetrahydronaphthalen-1-yl)-2,6-dioxo 1,2,3,6-tetrahydropyrimidine-4-carboxamide]
[1]
  IC50: ≤ 10 µM

## Nc1c(C(=O)N[C@@H]2CCCc3c(NS(=O)(=O)c4ccccc4)cccc32)[nH]c(=O)[nH]c1=O [Example 125, (R)-5-amino-2,6-dioxo-N-(5-(phenylsulfonamido)-1,2,3,4-tetrahydronaphthalen-1-yl)-1,2,3,6-tetrahydropyrimidine-4-carboxamide]
[2]
  IC50: 0.329 µM
[1]
  IC50: ≤ 10 µM
